In patent US5618812A, “Benzodiazepine derivatives” (Merck Sharp & Dohme, Ltd., priority 1992, dated 1997) one finds IC50 data, which are given here for 23 compounds.

In one test the target is T1, CCK-A (Rattus norvegicus, UniProt P30551).
T1 sequence (P30551 1-444): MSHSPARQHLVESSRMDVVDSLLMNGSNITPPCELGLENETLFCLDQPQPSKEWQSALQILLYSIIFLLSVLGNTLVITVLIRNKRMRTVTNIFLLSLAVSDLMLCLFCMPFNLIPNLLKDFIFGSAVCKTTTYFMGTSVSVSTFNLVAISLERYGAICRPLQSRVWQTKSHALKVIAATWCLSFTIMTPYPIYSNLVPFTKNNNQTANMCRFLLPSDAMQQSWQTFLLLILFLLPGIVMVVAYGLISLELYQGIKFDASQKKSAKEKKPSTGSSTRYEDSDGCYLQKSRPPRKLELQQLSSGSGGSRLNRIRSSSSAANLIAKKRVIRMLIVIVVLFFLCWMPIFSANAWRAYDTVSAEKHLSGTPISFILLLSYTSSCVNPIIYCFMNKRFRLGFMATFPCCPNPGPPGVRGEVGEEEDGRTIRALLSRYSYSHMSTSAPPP
Briefly: biochemical. The format is binding. Here is the method:
The CCK-A and CCK-B antagonising activity of the compounds described herein was evaluated using the assays described in published European patent application no. 0514133. The method essentially involves determining the concentration of the test compound required to displace 50% of the specific ^125 I-CCK from rat pancreas (CCK-A) or guinea pig brain (CCK-B).

In another test the target is T2, CCK-B (Cavia porcellus, UniProt H0VZC5).
T2 construct: guinea pig brain (CCK-B); from tissue; host or cells: guinea pig brain
T2 sequence (H0VZC5 1-426): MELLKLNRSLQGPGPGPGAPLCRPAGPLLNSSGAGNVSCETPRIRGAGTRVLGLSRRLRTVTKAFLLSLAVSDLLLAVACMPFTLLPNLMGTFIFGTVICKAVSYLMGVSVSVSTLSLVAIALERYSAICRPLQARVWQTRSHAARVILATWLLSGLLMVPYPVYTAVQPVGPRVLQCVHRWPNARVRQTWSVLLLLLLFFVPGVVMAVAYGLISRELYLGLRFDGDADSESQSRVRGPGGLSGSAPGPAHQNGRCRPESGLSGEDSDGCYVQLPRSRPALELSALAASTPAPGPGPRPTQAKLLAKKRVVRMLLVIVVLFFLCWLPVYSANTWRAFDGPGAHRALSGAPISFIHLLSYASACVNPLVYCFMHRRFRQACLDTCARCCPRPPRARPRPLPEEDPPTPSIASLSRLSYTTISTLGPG
Description: displacement of specific 125I-CCK from guinea pig brain (CCK-B receptor binding). Here is the method: The CCK-A and CCK-B antagonising activity of the compounds described herein was evaluated using the assays described in published European patent application no. 0514133. The method essentially involves determining the concentration of the test compound required to displace 50% of the specific ^125 I-CCK from rat pancreas (CCK-A) or guinea pig brain (CCK-B). The data in Table 1 were obtained for compounds of the Examples.

Where [1] appears, read: rat pancreas (CCK-A), 125I-CCK, read-out: CCK RECEPTOR BINDING RESULTS IC50 125I-CCK Pancreas.
Setting [2] is: read-out: CCK RECEPTOR BINDING RESULTS IC50 125I-CCK Brain.
Where [3] appears, read: CCK RECEPTOR BINDING RESULTS IC50 125I-CCK Pancreas, rat pancreas (CCK-A), 125I-CCK.
[4] abbreviates: CCK RECEPTOR BINDING RESULTS IC50 125I-CCK Brain.
[5] abbreviates: read-out: CCK RECEPTOR BINDING RESULTS IC50 125I-CCK Pancreas.

pIC50: −log10 of the molar value. Counter-ions that a name gives are not always drawn. Like-named read-outs stand apart in the source and are kept apart here.

In the case of `C[C@@H]1CCC[C@H](C)N1C1=NC(NC(=O)Nc2ccc3c(c2)CCC3)C(=O)N(C)c2ccccc21` (single isomer, unassigned) [15 (enantiomer A)], the pIC50 – broadly, the IC50 on a negative log10 scale, so that one unit is a factor of ten – on CCK-A (setting [1]) is 5.72; at CCK-B (setting [2]) it was 8.46.

With `C[C@@H]1CCC[C@H](C)N1C1=NC(NC(=O)Nc2ccc3c(c2)CCC3)C(=O)N(C)c2ccccc21` (single isomer, unassigned) [15 (enantiomer B)], the pIC50 is 6.79 at CCK-A (setting [1]) and 7.12 on CCK-B (setting [2]).

Take `CCCN1C(=O)C(NC(=O)Nc2cccc(C)c2)N=C(N2CCC(C)CC2)c2ccccc21` (single isomer, unassigned) [18 (enantiomer A)]: the pIC50 is 6.12 on CCK-A (setting [1]) and 9.19 on CCK-B (setting [2]).

`Cc1cccc(NC(=O)NC2N=C(N3CCC(C(F)(F)F)CC3)c3ccccc3N(C)C2=O)c1` (single isomer, unassigned) [20 (enantiomer A)]: the pIC50 on CCK-A (setting [1]) is 5.48; at CCK-B (setting [2]), 8.82.

Consider `Cc1cccc(NC(=O)NC2N=C(N3CCC(C(F)(F)F)CC3)c3ccccc3N(C)C2=O)c1` (single isomer, unassigned) [20 (enantiomer B)], for which the pIC50 at CCK-A (setting [1]) was 7.40; at CCK-B (setting [2]) it was 7.36.

Turning to `Cc1cccc(NC(=O)NC2N=C(N3CCCCC3(C)C)c3ccccc3N(C)C2=O)c1` (single isomer, unassigned) [22 (enantiomer A)], the figures for the pIC50 at CCK-A (setting [1]) and at CCK-B (setting [2]) were 5.44 and 7.48, respectively.

As for `Cc1cccc(NC(=O)NC2N=C(N3[C@H](C)C[C@H](C)C[C@@H]3C)c3ccccc3N(C)C2=O)c1` (single isomer, unassigned) [24 (enantiomer A)], the pIC50 on CCK-A (setting [1]) was 5.65; at CCK-B (setting [2]) it was 9.03.

Take `Cc1cccc(NC(=O)NC2N=C(N3[C@H](C)C[C@H](C)C[C@@H]3C)c3ccccc3N(C)C2=O)c1` (single isomer, unassigned) [24 (enantiomer B)]: the pIC50 on CCK-A (setting [1]) was 7.34; at CCK-B (setting [2]), 7.30.

Regarding `Cc1cccc(NC(=O)NC2N=C(N3CCC(C)(C)CC3)c3ccccc3N(CC(F)(F)F)C2=O)c1` (single isomer, unassigned) [28 (enantiomer A)], the values for the pIC50 on CCK-A (setting [1]) and at CCK-B (setting [2]) were 6.62 and 7.56, respectively.

Turning to `Cc1cccc(NC(=O)NC2N=C(N3CCC(C)(C)CC3)c3ccccc3N(CC(F)(F)F)C2=O)c1` (single isomer, unassigned) [28 (enantiomer B)], the pIC50 at CCK-A (setting [1]) was 8.40; on CCK-B (setting [2]) it was 6.55.

Regarding `CCN1C(=O)C(NC(=O)Nc2cccc(C)c2)N=C(N2CCC(C)(C)CC2)c2ccccc21` (single isomer, unassigned) [Example 30], the results for the pIC50 on CCK-A (setting [1]) and at CCK-B (setting [2]) were 6.46 and 9.44, respectively.

Regarding `Cc1cccc(NC(=O)NC2N=C(N3CC4CCC(CC4)C3)c3ccccc3N(C)C2=O)c1` (single isomer, unassigned; (+)) [Example 34, (+)-N-[5-(3-Azabicyclo[3,2,2]nonan-3-yl)-2,3-dihydro-1-methyl-2-oxo-1H-1,4-benzodiazepin-3-yl]-N'-[3-methylphenyl]urea Hydrochloride], the pIC50 on CCK-A (setting [3]) is 8.19; on CCK-B (setting [4]), 7.57.

As to `CN1C(=O)C(NC(=O)Nc2cccc(F)c2)N=C(N2CC3CCC(CC3)C2)c2ccccc21` (single isomer, unassigned; (+)) [Example 37, (+)-N-[5-(3-Azabicyclo[3,2,2]nonan-3-yl)-2,3-dihydro-1-methyl-2-oxo-1H-1,4-benzodiazepin-3-yl]-N'-[3-fluorophenyl]urea Hydrochloride], the pIC50 was 8.05 at CCK-A (setting [3]) and 6.84 at CCK-B (setting [4]).

Consider `Cc1cccc(NC(=O)NC2N=C(N3CC4CCC(C4)C3)c3ccccc3N(C)C2=O)c1` (single isomer, unassigned; (+)) [Example 40, (+)-N-[5-(3-Azabicyclo[3,2,1]octan-3-yl)-2,3-dihydro-1-methyl-2-oxo-1H-1,4-benzodiazepin-3-yl]-N'-[3-methylphenyl]urea Hydrochloride], for which the values for the pIC50 at CCK-A (setting [5]) and at CCK-B (setting [2]) were 8.06 and 7.44, respectively.

`Cc1ccc(NC(=O)NC2N=C(N3CC4CCC(CC4)C3)c3ccccc3N(C)C2=O)cc1F` (single isomer, unassigned; (+)) [Example 46, (+)-N-[5-(3-Azabicyclo[3,2,2]nonan-3-yl)-2,3-dihydro-1-methyl-2-oxo-1H-1,4-benzodiazepin-3-yl]-N'-[3-fluoro-4-methylphenyl]urea Hydrochloride]: the pIC50 was 7.63 at CCK-A (setting [3]) and 7.70 on CCK-B (setting [4]).

As for `CN1C(=O)C(NC(=O)Nc2cccc(I)c2)N=C(N2CC3CCC(CC3)C2)c2ccccc21` (single isomer, unassigned; (+)) [Example 49, (+)-N-[5-(3-Azabicyclo[3,2,2]nonan-3-yl)-2,3-dihydro-1-methyl-2-oxo-1H-1,4-benzodiazepin-3-yl]-N'-[3-iodophenyl]urea], the pIC50 at CCK-A (setting [1]) was 8.02; at CCK-B (setting [4]), 7.08.

`Cc1cc(NC(=O)NC2N=C(N3CC4CCC(CC4)C3)c3ccccc3N(C)C2=O)ccc1F` (single isomer, unassigned; (+)) [Example 54, (+)-N-[5-(3-Azabicyclo[3,2,2]nonan-3-yl)-2,3-dihydro-1-methyl-2-oxo-1H-1,4-benzodiazepin-3-yl]-N'-[4-fluoro-3-methylphenyl]urea Hydrochloride]: the pIC50 on CCK-A (setting [3]) is 8.08; at CCK-B (setting [4]) it was 7.17.

With `CN1C(=O)C(NC(=O)Nc2cccc(C(F)(F)F)c2)N=C(N2CC3CCC(CC3)C2)c2ccccc21` (single isomer, unassigned; (+)) [Example 56, (+)-N-[5-(3-Azabicyclo[3,2,2]nonan-3-yl)-2,3-dihydro-1-methyl-2-oxo-1H-1,4-benzodiazepin-3-yl]-N'-[3-trifluoromethylphenyl]urea Hydrochloride], the results for the pIC50 on CCK-A (setting [1]) and at CCK-B (setting [2]) were 7.21 and 7.33, respectively.

In the case of `Cc1cccc(NC(=O)NC2N=C(N3C[C@H]4CCCC[C@H]4C3)c3ccccc3N(C)C2=O)c1` (single isomer, unassigned; (+)) [Example 59, (+)-N-[2,3-Dihydro-1-methyl-5-(cis-octahydroisoindol-2-yl)-2-oxo-1H-1,4-benzodiazepin-3-yl]N'[-3-methylphenyl]urea hydrochloride], the figures for the pIC50 on CCK-A (setting [5]) and at CCK-B (setting [2]) were 8.01 and 6.84, respectively.

Turning to `CCCN1C(=O)C(NC(=O)Nc2cccc(C)c2)N=C(N(C)C2CCCCC2)c2ccccc21` (single isomer, unassigned; (+)) [Example 62, (+) 5-(N-Cyclohexyl-N-methylamino)-2,3-dihydro-2-oxo-1-propyl-1H-1,4-benzodiazepin-3-y1-N'-[3-methylphenyl]urea], the pIC50 at CCK-A (setting [1]) was 6.94; at CCK-B (setting [2]), 7.45.

Take `Cc1cccc(NC(=O)NC2N=C(N(C)C3CCCCC3)c3ccccc3N(C)C2=O)c1` (single isomer, unassigned; (+)) [Example 65, (+)5-(N-Cyclohexyl-N-methylamino)-2,3-dihydro-2-oxo-1-methyl-1H-1,4-benzodiazepin-3-yl-N'[3-methylphenyl]urea. Hydrochloride]: the pIC50 is 6.86 on CCK-A (setting [1]) and 7.86 at CCK-B (setting [2]).

Regarding `Cc1cccc(NC(=O)NC2N=C(N(C)C3CCCCCC3)c3ccccc3N(C)C2=O)c1` (single isomer, unassigned; (+)) [Example 68, (+)-5-(N-Cycloheptyl-N-methylamino)-2,3-dihydro-1-methyl-2-oxo-1H-1,4-benzodiazepin-3-yl-N'-[3-methylphenyl]urea. Hydrochloride], the pIC50 at CCK-A (setting [1]) was 7.27; on CCK-B (setting [2]), 7.58.

As for `CN1C(=O)C(NC(=O)c2cc3ccccc3[nH]2)N=C(N2CC3CCC(CC3)C2)c2ccccc21` (single isomer, unassigned; (+)) [Example 89, (+)-N-(5-(3-Azabicyclo[3,2,2]nonan-3-yl)-2,3-ihydro-1-methyl-2-oxo-1H-1,4-benzodiazepin-3-yl)-1H-indole-2-carboxamide dihydrochloride], the figures for the pIC50 at CCK-A (setting [1]) and on CCK-B (setting [2]) were 9.59 and 6.19, respectively.
